Assay results: US9073918B2, “Pyrazolo[4,3-b]pyridine-7-amine inhibitors of ALK5” (Takeda Pharmaceutical Company Limited, priority 2010, dated 2015)

Assays:
cellular TGF-β R1 ALK5 = target: T1, cellular TGF-β R1 ALK5 (Homo sapiens, UniProt P36897); test: Cellular inhibition of ALK5 (CellSensor SBE-bla HEK 293T beta-lactamase reporter); assay type: cell-based; settings: cellular inhibition of ALK5, SBE-bla HEK 293T cells, TGFb-1 stimulated 5 hours; average where measured in multiple experiments
T1 construct: host or cells: CellSensor SBE-bla HEK 293T
T1 sequence (P36897 34-503): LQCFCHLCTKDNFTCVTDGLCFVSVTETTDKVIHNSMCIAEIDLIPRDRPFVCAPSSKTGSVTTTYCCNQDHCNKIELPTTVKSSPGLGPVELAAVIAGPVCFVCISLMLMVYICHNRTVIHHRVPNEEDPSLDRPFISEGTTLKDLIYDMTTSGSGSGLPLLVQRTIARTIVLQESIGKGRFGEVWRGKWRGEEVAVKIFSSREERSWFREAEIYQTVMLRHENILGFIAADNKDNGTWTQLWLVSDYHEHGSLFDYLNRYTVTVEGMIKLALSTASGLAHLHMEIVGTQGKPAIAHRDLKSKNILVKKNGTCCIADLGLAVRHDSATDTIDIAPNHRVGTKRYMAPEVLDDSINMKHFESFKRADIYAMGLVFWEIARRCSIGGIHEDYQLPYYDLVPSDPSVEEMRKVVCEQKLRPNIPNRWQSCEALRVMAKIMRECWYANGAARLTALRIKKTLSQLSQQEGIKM
Text: Test compounds were screened for cellular TGF-β R1 ALK5 inhibition by use of a CellSensor® SBE-bla HEK 293T (K1550, Invitrogen Corp. Madison, Wis.) cell line. The CellSensor® SBE-bla HEK 293T cell line contains a beta-lactamase reporter gene under control of the SBE response element stably integrated into HEK 293T cells. The SBE response element is a DNA region that binds activated SMADs which results from the binding of TGF-β to, and subsequent activation of ALK5.
The assay procedure was as follows:
CellSensor® SBE-bla HEK 293T cell line were plated at 12,000 cells/well in 40 ul DMEM plus 5 ug/ml blasticidin into 384-well, black-wall, clear-bottom assay plate and incubated overnight.
The following day 5 uL of 10×, 2.5-fold serially diluted test compounds in DMSO were added into cells to a final compound concentration of 1× and DMSO concentration of 0.5%. Assay was incubated for 1 hour at 37° C., 5% CO2, 5 uL of 100 ng/mL TGFb-1 was then added to activate ALK5 and incubated for 5 hours at 37° C., 5% CO2, 10 uL of detector, LiveBLAzer FRET B/G substrate (CCF4-AM, Invitrogen Corp. Madison, Wis.) was added to cells and incubated for 2 hours at RT. Assay was measured using Spectramax, a bottom-read fluorescence plate reader, at excitation setting of 405 nm and emission settings of 460 nm and 530 nm.
Response is defined as the ratio of background corrected 460 nm emission values/background corrected 530 nm emission values. Cellular activity was defined as percent inhibition of uninhibited ALK5 activity (wells treated with DMSO+TGF-β). The percent inhibition of cellular ALK5 at a given compound concentration is defined as: 100%×[1−(response compound+TGF-β/response DMSO+TGF-β)] where response compound+TGF-β is defined as the activity in the presence of test compound and response DMSO+TGF-β is defined as the uninhibited cellular ALK5 activity. The pIC50 value (negative log of the molar concentration of the compound that produces 50% inhibition) of a test compound is calculated by non-linear least squares curve fitting. pIC50 values, the negative of the log of the IC50, are calculated by non-linear curve fitting of the compound concentrations and percent of inhibition to the standard pIC50 equation.
Where inhibition was measured in multiple experiments the value in Table 2 is an average. N.T. means not tested.

TGF-β R1 ALK5 = target: T2, TGF-β R1 ALK5 (Homo sapiens, UniProt P36897); test: In vitro inhibition of ALK5 (LanthaScreen activity assay, TR-FRET); assay type: biochemical
T2 construct: purchased Invitrogen PV5837
T2 sequence (P36897 34-503): T1 sequence (P36897 34-503)

SMILES	IC50 (cellular TGF-β R1 ALK5) [µM]	IC50 (TGF-β R1 ALK5) [µM]
NC(=O)Cn1ncc2nccc(Nc3ccnc(-c4cc(F)ccc4F)c3)c21 [Example 86, 2-(7-(2-(2,5-difluorophenyl)pyridin-4-ylamino)-1H-pyrazolo[4,3-b]pyridin-1-yl)acetamide]	0.158	0.0501
NC(=O)Cn1cc2nccc(Nc3ccnc(-c4cc(F)ccc4F)c3)c2n1 [Example 87, 2-(7-(2-(2,5-difluorophenyl)pyridin-4-ylamino)-2H-pyrazolo[4,3-b]pyridin-2-yl)acetamide]	0.251	0.0251
Cc1ccc(F)c(-c2cc(Nc3c(F)cnc4cn(CC(N)=O)nc34)c(C)cn2)n1 [Example 88, 2-(6-fluoro-7-(3′-fluoro-5,6′-dimethyl-2,2′-bipyridin-4-ylamino)-2H-pyrazolo[4,3-b]pyridin-2-yl)acetamide]	0.158	0.01
Cc1ccc(F)c(-c2cc(Nc3ccnc4cnn(CC5CC5)c34)ccn2)n1 [Example 89, 1-(cyclopropylmethyl)-N-(3′-fluoro-6′-methyl-2,2′-bipyridin-4-yl)-1H-pyrazolo[4,3-b]pyridin-7-amine]	0.2	0.0251
Cc1ccc(F)c(-c2cc(Nc3ccnc4cn(CCCO)nc34)c(C)cn2)n1 [Example 90, 3-(7-(3′-fluoro-5,6′-dimethyl-2,2′-bipyridin-4-ylamino)-2H-pyrazolo[4,3-b]pyridin-2-yl)propan-1-ol]	0.0631	0.00794
Cc1ccc(F)c(-c2cc(Nc3c(F)cnc4cn(CCO)nc34)c(C)cn2)n1 [Example 91, 2-(6-fluoro-7-(3′-fluoro-5,6′-dimethyl-2,2′-bipyridin-4-ylamino)-2H-pyrazolo[4,3-b]pyridin-2-yl)ethanol]	0.158	0.02
CCNC(=O)n1ncc2nccc(Nc3nc(-c4cc(F)ccc4F)nc(C)c3C)c21 [Example 92, 7-(2-(2,5-difluorophenyl)-5,6-dimethylpyrimidin-4-ylamino)-N-ethyl-1H-pyrazolo[4,3-b]pyridine-1-carboxamide]	0.501	0.0794
CCNC(=O)n1ncc2nccc(Nc3ccnc(-c4cc(F)ccc4F)c3)c21 [Example 93, 7-(2-(2,5-difluorophenyl)pyridin-4-ylamino)-N-ethyl-1H-pyrazolo[4,3-b]pyridine-1-carboxamide]	0.0251	0.00501
CNC(=O)n1ncc2nccc(Nc3ccnc(-c4cc(F)ccc4F)c3)c21 [Example 94, 7-(2-(2,5-difluorophenyl)pyridin-4-ylamino)-N-methyl-1H-pyrazolo[4,3-b]pyridine-1-carboxamide]	0.02	0.002
Cc1nc(-c2cc(F)ccc2F)cc(Nc2ccnc3c[nH]nc23)c1C [Example 95, N-(6-(2,5-difluorophenyl)-2,3-dimethylpyridin-4-yl)-2H-pyrazolo[4,3-b]pyridin-7-amine]	0.158	0.02
Cc1cnc(-c2cc(F)ccc2F)nc1Nc1ccnc2cn[nH]c12 [Example 96, N-(2-(2,5-difluorophenyl)-5-methylpyrimidin-4-yl)-1H-pyrazolo[4,3-b]pyridin-7-amine]	0.0631	0.02
CCNC(=O)n1ncc2nccc(Nc3nc(-c4cc(F)ccc4F)ncc3C)c21 [Example 97, 7-(2-(2,5-difluorophenyl)-5-methylpyrimidin-4-ylamino)-N-ethyl-1H-pyrazolo[4,3-b]pyridine-1-carboxamide]	0.398	0.0158
Cc1ccc(F)c(-c2cc(Nc3c(F)cnc4cn(CC(C)(C)O)nc34)c(C)cn2)n1 [Example 99, 1-(6-fluoro-7-(3′-fluoro-5,6′-dimethyl-2,2′-bipyridin-4-ylamino)-2H-pyrazolo[4,3-b]pyridin-2-yl)-2-methylpropan-2-ol]	1.26	0.501
Cc1ccc(F)c(-c2cc(Nc3c(F)cnc4cnn(C[C@H](C)O)c34)ccn2)n1 [Example 100B, (S)-1-(6-fluoro-7-(3′-fluoro-6′-methyl-2,2′-bipyridin-4-ylamino)-1H-pyrazolo[4,3-b]pyridin-1-yl)propan-2-ol]	0.251	0.0631
Cc1cnc(-c2cc(F)ccc2F)cc1Nc1ccnc2cn[nH]c12 [Example 108, N-(2-(2,5-difluorophenyl)-5-methylpyridin-4-yl)-1H-pyrazolo[4,3-b]pyridin-7-amine]	0.00794	0.001
CCNC(=O)n1ncc2nccc(Nc3cc(-c4cc(F)ccc4F)ncc3C)c21 [Example 109, 7-(2-(2,5-difluorophenyl)-5-methylpyridin-4-ylamino)-N-ethyl-1H-pyrazolo[4,3-b]pyridine-1-carboxamide]	0.02	0.00158
Cc1cnc(-c2cc(F)ccc2F)cc1Nc1ccnc2cnn(C(=O)NC(C)C)c12 [Example 110, 7-(2-(2,5-difluorophenyl)-5-methylpyridin-4-ylamino)-N-isopropyl-1H-pyrazolo[4,3-b]pyridine-1-carboxamide]	0.158	0.00501

Next, values leading:

IC50 (cellular TGF-β R1 ALK5) [µM]	IC50 (TGF-β R1 ALK5) [µM]	SMILES
0.0251	0.00631	Cc1ccc(F)c(-c2cc(Nc3ccnc4cnn(C[C@@H](C)O)c34)ccn2)n1 [Example 98, (R)-1-(7-(3′-fluoro-6′-methyl-2,2′-bipyridin-4-ylamino)-1H-pyrazolo[4,3-b]pyridin-1-yl)propan-2-ol]
1.26	0.398	Cc1ccc(F)c(-c2cc(Nc3c(F)cnc4cn(C[C@H](C)O)nc34)ccn2)n1 [Example 100A, (S)-1-(6-fluoro-7-(3′-fluoro-6′-methyl-2,2′-bipyridin-4-ylamino)-2H-pyrazolo[4,3-b]pyridin-2-yl)propan-2-ol]
0.1	0.0251	Cc1ccc(F)c(-c2cc(Nc3ccnc4cnn(CCF)c34)ccn2)n1 [Example 101, N-(3′-fluoro-6′-methyl-2,2′-bipyridin-4-yl)-1-(2-fluoroethyl)-1H-pyrazolo[4,3-b]pyridin-7-amine]
0.0501	0.0158	Cc1ccc(F)c(-c2cc(Nc3ccnc4cn(CCF)nc34)ccn2)n1 [Example 102, N-(3′-fluoro-6′-methyl-2,2′-bipyridin-4-yl)-2-(2-fluoroethyl)-2H-pyrazolo[4,3-b]pyridin-7-amine]
0.316	0.0794	Cc1ccc(F)c(-c2cc(Nc3ccnc4cn(CC(F)F)nc34)ccn2)n1 [Example 104, 2-(2,2-difluoroethyl)-N-(3′-fluoro-6′-methyl-2,2′-bipyridin-4-yl)-2H-pyrazolo[4,3-b]pyridin-7-amine]
0.0398	0.02	Cc1ccc(F)c(-c2cc(Nc3ccnc4cnn(CC(F)F)c34)ccn2)n1 [Example 105, 1-(2,2-difluoroethyl)-N-(3′-fluoro-6′-methyl-2,2′-bipyridin-4-yl)-1H-pyrazolo[4,3-b]pyridin-7-amine]
1.26	0.126	Cc1ccc(F)c(-c2cc(Nc3ccnc4cnn(C[C@H](C)O)c34)ccn2)n1 [Example 106, (S)-1-(7-(3′-fluoro-6′-methyl-2,2′-bipyridin-4-ylamino)-1H-pyrazolo[4,3-b]pyridin-1-yl)propan-2-ol]
0.0398	0.00631	Cc1ccc(F)c(-c2cc(Nc3ccnc4cn(C[C@H](C)O)nc34)ccn2)n1 [Example 107, (S)-1-(7-(3′-fluoro-6′-methyl-2,2′-bipyridin-4-ylamino)-2H-pyrazolo[4,3-b]pyridin-2-yl)propan-2-ol]
12.6	0.501	CNC(=O)Cn1cc2nccc(Nc3ccnc(-c4nc(C)ccc4F)c3)c2n1 [Example 111, 2-(7-(3′-fluoro-6′-methyl-2,2′-bipyridin-4-ylamino)-2H-pyrazolo[4,3-b]pyridin-2-yl)-N-methylacetamide]
